One assay has as its system HUVECs. Briefly: HUVEC proliferation, 3-day MTT assay. The assay is classed as cell-based, human. (In general: Tetrazolium dyes change colour on reduction, which living cells bring about.)
Another assay concerns DLD1 cells. Briefly: Colon carcinoma cell proliferation, FACS count of live cells. Particulars: 72 hrs; read-out: IC50, growth inhibition. The assay is classed as cell-based, human. On the procedure:
(§1) Inhibition of β-catenin, which is positively regulated by CDK8, was reported to inhibit proliferation of some colon carcinoma cell lines (Firestein et al., 2008). We have therefore determined the ability of compound 1 to inhibit the proliferation of several colon carcinoma cell lines, including human DLD1, HCT116, SW480 and murine C26. This analysis waqs carried out by incubating cells for 72 hrs in the presence of 0, 2.5, 5 or 10 μM compound 1, followed by FACS measurement of the number of live cells, as defined by the lack of uptake of membrane-impermeable dye propidium iodide.

Another assay concerns HCT116. The assay is described as above. It is filed as cell-based, human. Conditions: 72 hrs, 2.5, 5 or 10 μM. On the procedure:
as §1

Another assay deals with SW480. Described as above. It is filed as cell-based, human. Conditions: 72 hrs, 2.5, 5 or 10 μM. On the procedure:
as §1

Another assay concerns C26. The description is as above. It is filed as cell-based, murine. Conditions: 72 hrs, 2.5, 5 or 10 μM. The protocol:
as §1

Structures are written as SMILES.

As usually defined, the IC50 is the concentration that inhibits the measured activity by half.

Take `N#Cc1ccc2ncnc(NCCc3ccccc3)c2c1` [compound 1]: the “effect on HUVEC cell number relative to untreated control” value with HUVECs (0.625 or 1.25 μM) is reported as “little or no effect”. Further, the figures for the IC50 with HUVECs (3-day MTT) and with DLD1 cells were 10.4 µM and around 5 µM, respectively. Also, the “growth of colon carcinoma cell line” value in the assay with HCT116, in the assay with SW480 and in the assay on C26 was “inhibited the growth” throughout.
